One data set concerns facial acne vulgaris. Kind of data set: Pilot clinical study, lesion count and irritation evaluated by a dermatologist. It is filed as in vivo, human.
For data set [1], the system named is Propionibacterium acnes (ATCC 11827). Kind of data set: Minimum Inhibitory Concentration Assay. Conditions: ATCC 11827 (A5), visible growth, duplicate. It is filed as cell-based. The procedure:
(§1) The Minimum Inhibitory Concentration Assay assessed the in vitro antimicrobial potency of the test compound. […] 4 compounds were tested, which are commonly used in cosmetics or to treat acne for their effect on the growth of different P. acnes strains. The 4 tested compounds were glycolic acid, salicylic acid, lactic acid and hyaluronic acid. The first 3 are commonly used in products to treat acne, while the last one is a commonly used cosmetic compound. Any other compound can be tested the same way. The test substance was dissolved in water or DMSO (for salicylic acid) and 4 μl of the test substance was added to 196 μl of growth medium resulting in the highest tested compound concentration. Then this concentration was diluted by 2-fold serial titrations, for a total of 11 concentrations and the final vehicle concentration was 2 percent. Following incubation, the test plate was visually examined and each well was scored for growth or complete inhibition of growth; then the MIC was recorded. Each test substance was evaluated in duplicate. Vehicle-control and an active reference agent (clindamycin) were used as blank and positive controls, respectively. The following three strains were used to assess whether strain specific differences in the tolerance to these compounds could be observed: • Propionibacterium acnes (ATCC 11827)—A5 • Propionibacterium acnes (ATCC 29399) • Propionibacterium acnes (ATCC 6919)—A1 The final concentrations for each tested compound were: • 1. […] Lactic acid: 100% (13.4M): […]

The test system of data set [2] is Propionibacterium acnes (ATCC 29399). Briefly: Minimum Inhibitory Concentration Assay. The format is cell-based. The settings on record: duplicate. The procedure:
as §1

Data set [3] has as its system Propionibacterium acnes (ATCC 6919). Kind of data set: Minimum Inhibitory Concentration Assay. It is filed as cell-based. Conditions: ATCC 6919 (A1), visible growth, duplicate. As for the experimental part:
as §1

A further data set has as its system acne. Conditions: McLane, 2001; cited from earlier work.
For data set [4], the system named is Seb E6/E7 sebocytes. Briefly: Neutral lipid staining with HCS LipidTOX (lipid production). It is filed as cell-based. The settings on record: 72 h stimulation; whole-well 5× and individual-cell 20× analysis. As for the experimental part: An image at 5× magnification was taken from each well and then the relative fluorescence intensity quantified. Each condition was measured in triplicates. As a control, the cells were either unstimulated (blank) or stimulated with cis-9, cis-12 linoleic acid (not shown).
As a negative control, a non-stimulated blank was used and as positive control, the cells were stimulated for lipogenesis with cis-9, cis-12 linoleic acid.
Seb E6/E7 cells, which were seeded in 96-well plates and stimulated as described above were then analyzed for the induction lipid production. After 72 h of stimulation, the cells were stained with HCS LipidTOX deep red neutral lipid stain from Thermo Fisher (product no. H34477) according to the manufacturer's instructions. A final dilution of 1:450 of HCS LipidTOX dye in PBS was used for the staining. The amount of fluorescence was then evaluated using an inverted fluorescence microscope. In one approach, a complete well was imaged at 5× magnification and the total fluorescence in the image was quantified. A clear dose-dependent induction of lipid production was seen. […]
Alternatively, the fluorescent signal of individual cells, which were randomly selected from a higher magnification images, were quantified. 10 cells per image and 3 wells per condition were quantified. […]

For data set [5], the system named is Seb E6/E7 sebocytes.
The next data set concerns P. acnes. The settings on record: Allgaier et al., 1985; cited from earlier work.
Setting [6] is: Cutibacterium acnes, ATCC29399, visible growth.

≈ marks a conversion by molar mass, not a printed value. Read-outs that look alike come from different tables or passages of the source. No end group written: not given here.

For `O=C(OOC(=O)c1ccccc1)c1ccccc1` [Benzoyl Peroxide, Benzoyl peroxide], the “subjects with reduced lesions” value in the data set with facial acne vulgaris (end of week 1, of 10 subjects) is 4 subjects. In the data set with facial acne vulgaris (week 1 (day 7), end of 7-day Benzoyl Peroxide phase, 10 subjects), the “subjects improved (dermatologist evaluation, lesions)” value came out at 40%.

For orientation: MIC means the smallest concentration in the dilution series that meets the test's criterion for growth inhibition. With `O=C(O)CO` [Glycolic acid, glycolic acid], the MIC was found to be 18 mM (≈ 1370 µg/mL) in data set [1] (Cutibacterium acnes, ATCC11827); 60 mM (≈ 4560 µg/mL) in data set [2] (setting [6]); 18 mM (≈ 1370 µg/mL) in data set [3] (Cutibacterium acnes, ATCC6919).

With `CC1=C(/C=C/C(C)=C/C=C/C(C)=C\C(=O)O)C(C)(C)CCC1` [Isotretinoin], the side effects result in the data set on acne is “causes skin irritation and also has teratogenic effects”.

`CCCCC/C=C\C/C=C\CCCCCCCC(=O)O` [cis-9, cis-12 linoleic acid]: the “induction of lipogenesis (relative fluorescence of neutral lipids)” value with Seb E6/E7 sebocytes [4] is given as “induce lipogenesis”. Further, in the data set on Seb E6/E7 sebocytes [5] (5 days exposure, different concentrations, triplicates), the “cytotoxic effect (low XTT metabolic activity with high LDH activity)” value was “no significant effect”.

For `CC(O)C(=O)O` (centres unmarked) [lactic acid], the results for the “MIC (inhibition of growth)” value in data set [1], in data set [2] (visible growth) and in data set [3] were 0.2%, 0.6% and 0.2%, respectively.

As to `O=C(O)c1ccccc1O` [salicylic acid], the minimal inhibitory concentration (MIC) in data set [1] (Cutibacterium acnes, ATCC11827) was greater than 6 mM; in data set [2] (setting [6]) it was greater than 6 mM; in data set [3] (Cutibacterium acnes, ATCC6919), greater than 6 mM.

Turning to `CCCCC/C=C\C=C\CCCCCCCCC(=O)O` [trans-10, cis 12 linoleic acid, trans-10, cis-12 linoleic acid], the “induction of lipogenesis (relative fluorescence of neutral lipids)” value with Seb E6/E7 sebocytes [4] is “dose-dependent induction of lipogenesis”. Besides, in the data set on Seb E6/E7 sebocytes [5], the “cytotoxic effect (low XTT metabolic activity with high LDH activity)” value was “clear dose-dependent cytotoxic effect”.

For “Epidermin: lantibiotic, antibiotic-like peptide naturally produced by S. epidermidis (IASKFICTPGCAKTGSFNSYCC; also: lantibiotic: lanthionine-type bridges, places not given here; UniProt P08136 31-52, looked up)”, the “activity against P. acnes” value with P. acnes is “highly active”.

In the case of hyaluronic acid, the MIC in data set [1], in data set [2] (visible growth) and in data set [3] was greater than 6e-05 mM in each case.

The record behind these values is patent US11987788B2, “Methods and compositions for changing the composition of the skin microbiome using complex mixtures of bacterial strains” (S-Biomedic NV, priority 2015, dated 2024).
